# What was measured:
# PD-1/PD-L1 = PD-1/PD-L1 (Homo sapiens, UniProt Q9NZQ7); assay: PD-1/PD-L1 biochemical protein-protein interaction assay (ALPHA); type: binding; details: 0.3 nM His tagged PD-L1, 2.5 nM biotinylated Fc-PD-1, 60 minutes at 25° C., read-out: IC50 PD-L1-PD-1 Alpha IC50-mono PD-L1-fcP-D1
# Procedure: Biological Activity PD-1/PD-L1 & CTLA/CD80 Biochemical Protein-Protein Interaction Assay
# Compounds were tested in biochemical protein-protein interaction assays to determine if they can specifically block the interaction between the extracellular domains of PD-1/PD-L1 or CTLA/CD80. Binding of the protein pairs is measured using a bead based Amplified Luminescent Proximity Homogeneous Assay (ALPHA) platform. Binding of each protein pair results in proximity of the donor and acceptor beads which leads to an increase in ALPHA signal. Disruption of the protein-protein interaction with a test compound results in a decrease in ALPHA signal. Assays are performed in 25 mM Hepes (pH 7.4), 150 mM NaCl, 3.4 mM EDTA, 0.005% Tween 20, and 0.01% BSA. Final protein concentration in the assays were 0.3 nM (His tagged PD-L1), 2.5 nM (biotinylated Fc-PD-1), 1 nM (His tagged CTLA4) and 1 nM (biotinylated CD80). After an assay reaction time of 60 minutes at 25° C., binding was measured with addition of 20 μg/mL ALPHA assay acceptor beads (anti-His coated) and […] ALPHA assay donor beads (streptavidin coated). IC50 values were calculated from the fit of the dose-response curves to a four-parameter equation. Representative data are shown below in Table 1.
# PD-1/PD-L1 interaction = target: T1, PD-1/PD-L1 interaction (Homo sapiens, UniProt Q9NZQ7); assay: PD-1/PD-L1 NFAT reporter co-culture assay; type: cell-based; details: Jurkat PD-1 NFAT-luciferase cells co-cultured with aAPC-PD-L1 CHO cells, 6 hrs at 37° C.; read-out: EC50 NFAT Luciferase
# T1 construct: expressed in transfected cells; host or cells: CHO cells (aAPC-PD-L1) co-cultured with Jurkat cells overexpressing PD-1 and an NFAT-luciferase reporter
# Procedure, shortened: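 Restoration of TCR-driven NFAT luciferase signal: 6 h, 37 °C co-culture of PD-1 Jurkat reporter cells (pre-mixed with compound) on overnight-seeded PD-L1/anti-CD3 CHO monolayer. ONE-Glo luminescence; dose-response fitted to four-parameter equation for EC50.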
# T1 sequence (Q9NZQ7 19-290): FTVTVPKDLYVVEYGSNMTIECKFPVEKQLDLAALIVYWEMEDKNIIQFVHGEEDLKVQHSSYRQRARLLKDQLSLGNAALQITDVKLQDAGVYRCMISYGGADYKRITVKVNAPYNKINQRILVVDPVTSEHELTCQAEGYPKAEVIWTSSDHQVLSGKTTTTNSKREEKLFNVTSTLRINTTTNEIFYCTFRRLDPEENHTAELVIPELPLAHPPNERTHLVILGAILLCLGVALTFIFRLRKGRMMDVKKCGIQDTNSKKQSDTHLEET
# Chain of PD-1/PD-L1 (Q9NZQ7 19-238 limits assumed): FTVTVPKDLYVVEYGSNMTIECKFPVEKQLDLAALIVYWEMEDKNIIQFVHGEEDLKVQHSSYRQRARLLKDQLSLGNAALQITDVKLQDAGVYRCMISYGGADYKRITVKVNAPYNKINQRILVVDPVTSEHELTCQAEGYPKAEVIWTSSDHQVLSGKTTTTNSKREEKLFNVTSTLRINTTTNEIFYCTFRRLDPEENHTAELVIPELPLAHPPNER
smiles,measurement,setting,value
"Cc1c(COc2cc(OCc3cncc(C#N)c3)c(CN[C@@](C)(CO)C(=O)O)cc2Cl)cccc1-c1cccc(-c2ccc3c(c2)CC[C@H]3N(C)C)c1C [Example 378, (S)-2-((5-chloro-2-((5-cyanopyridin-3-yl)methoxy)-4-((3′-((R)-1-(dimethylamino)-2,3-dihydro-1H-inden-5-yl)-2,2′-dimethyl-[1,1′-biphenyl]-3-yl)methoxy)benzyl)amino)-3-hydroxy-2-methylpropanoic acid]",IC50,PD-1/PD-L1,0.127 nM
same,EC50,PD-1/PD-L1 interaction,191 nM
"Cc1c(COc2cc(OCc3cncc(C#N)c3)c(CNCCO)cc2Cl)cccc1-c1cccc(COc2cc(OCc3cncc(C#N)c3)c(CNC[C@@H](O)CC(=O)O)cc2Cl)c1C [Example 207, (S)-4-((5-Chloro-4-((3′-((2-chloro-5-((5-cyanopyridin-3-yl)methoxy)-4-(((2-hydroxyethyl)amino)methyl)phenoxy)methyl)-2,2′-dimethyl-[1,1′-biphenyl]-3-yl)methoxy)-2-((5-cyanopyridin-3-yl)methoxy)benzyl)amino)-3-hydroxybutanoic acid]",IC50,PD-1/PD-L1,2 nM
same,EC50,PD-1/PD-L1 interaction,1550 nM
"C=Cc1cc(CNC[C@@H](O)CC(=O)O)c(OC)nc1OCc1cccc(-c2cccc(COc3nc(OC)c(CNC[C@@H](O)CC(=O)O)cc3C=C)c2C)c1C [Example 120, (3S,3′S)-4,4′-((((((2,2′-dimethyl-[1,1′-biphenyl]-3,3′-diyl)bis(methylene))bis(oxy))bis(2-methoxy-5-vinylpyridine-6,3-diyl))bis(methylene))bis(azanediyl))bis(3-hydroxybutanoic acid)]",IC50,PD-1/PD-L1,2 nM
same,EC50,PD-1/PD-L1 interaction,1300 nM
"COc1cc(OCc2cccc(-c3cccc(COc4ccc(CNC[C@@H](O)CC(=O)O)c(OC)n4)c3C)c2C)ccc1CNC[C@@H](O)CC(=O)O [Example 27, (S)-4-(((6-((3′-((4-((((S)-3-carboxy-2-hydroxypropyl)amino)methyl)-3-methoxyphenoxy)methyl)-2,2′-dimethyl-[1,1′-biphenyl]-3-yl)methoxy)-2-methoxypyridin-3-yl)methyl)amino)-3-hydroxybutanoic acid]",IC50,PD-1/PD-L1,2.3 nM
same,EC50,PD-1/PD-L1 interaction,25300 nM
"Cc1c(COc2cc(OCc3cncc(C#N)c3)c(CNCCO)cc2Cl)cccc1-c1cccc(COc2ccc(CNCCO)cc2C(F)(F)F)c1C [Example 204, 5-((4-Chloro-2-(((2-hydroxyethyl)amino)methyl)-5-((3′-((4-(((2-hydroxyethyl)amino)methyl)-2-(trifluoromethyl)phenoxy)methyl)-2,2′-dimethyl-[1,1′-biphenyl]-3-yl)methoxy)phenoxy)methyl)nicotinonitrile]",IC50,PD-1/PD-L1,25.7 nM
same,EC50,PD-1/PD-L1 interaction,927 nM
"COc1nc(OCc2cccc(-c3cccc(COc4ccc(CNC[C@@H](O)CC(=O)O)c(OC)n4)c3C)c2C)ccc1CNC[C@@H](O)CC(=O)O [Example 19, (3S,3′S)-4,4′-((((((2,2′-dimethyl-[1,1′-biphenyl]-3,3′-diyl)bis(methylene))bis(oxy))bis(2-methoxypyridine-6,3-diyl))bis(methylene))bis(azanediyl))bis(3-hydroxybutanoic acid)]",IC50,PD-1/PD-L1,1.1 nM
same,EC50,PD-1/PD-L1 interaction,5140 nM
"COc1nc(OCc2cccc(-c3cccc(COc4cc(OCc5cncc(C#N)c5)c(CNCCO)cc4Cl)c3C)c2C)ccc1CNCCO [Example 201, 5-((4-Chloro-2-(((2-hydroxyethyl)amino)methyl)-5-((3′-(((5-(((2-hydroxyethyl)amino)methyl)-6-methoxypyridin-2-yl)oxy)methyl)-2,2′-dimethyl-[1,1′-biphenyl]-3-yl)methoxy)phenoxy)methyl)nicotinonitrile]",IC50,PD-1/PD-L1,31.2 nM
same,EC50,PD-1/PD-L1 interaction,1110 nM
"Cc1c(COc2cc(OCc3cncc(C#N)c3)c(CNC[C@@H](O)C(=O)O)cc2Cl)cccc1-c1cccc(COc2cc(OCc3cncc(C#N)c3)c(CNC[C@@H](O)C(=O)O)cc2Cl)c1C [Example 161, (2R,2′R)-3,3′-((((((2,2′-dimethyl-[1,1′-biphenyl]-3,3′-diyl)bis(methylene))bis(oxy))bis(5-chloro-2-((5-cyanopyridin-3-yl)methoxy)-4,1-phenylene))bis(methylene))bis(azanediyl))bis(2-hydroxypropanoic acid)]",IC50,PD-1/PD-L1,2.8 nM
same,EC50,PD-1/PD-L1 interaction,310 nM
"COc1nc(OCc2cccc(-c3cccc(COc4ccc(CNCCNC(C)=O)c(OC)n4)c3C)c2C)ccc1CNCCNC(C)=O [Example 18, N,N′-(((((((2,2′-dimethyl-[1,1′-biphenyl]-3,3′-diyl)bis(methylene))bis(oxy))bis(2-methoxypyridine-6,3-diyl))bis(methylene))bis(azanediyl))bis(ethane-2,1-diyl))diacetamide]",IC50,PD-1/PD-L1,16.2 nM
same,EC50,PD-1/PD-L1 interaction,≥ 50000 nM
Cc1c(-c2ccc(OCCNC[C@@H](O)CC(=O)O)cc2)cccc1-c1cccc2c1CC[C@@H]2Oc1nc(OCc2cncc(C#N)c2)c(CNC[C@@H](O)CC(=O)O)cc1Br [Example 676],IC50,PD-1/PD-L1,0.064 nM
same,EC50,PD-1/PD-L1 interaction,62 nM
"Cc1c(COc2cc(OCc3cncc(C#N)c3)c(CN3CC[C@@H]3CO)cc2Br)cccc1-c1cccc(COc2cc(OCc3cncc(C#N)c3)c(CN3CC[C@@H]3CO)cc2Br)c1C [Example 258, 5,5′-((((((2,2′-dimethyl-[1,1′-biphenyl]-3,3′-diyl)bis(methylene))bis(oxy))bis(4-bromo-6-(((R)-2-(hydroxymethyl)azetidin-1-yl)methyl)-3,1-phenylene))bis(oxy))bis(methylene))dinicotinonitrile]",IC50,PD-1/PD-L1,6.3 nM
same,EC50,PD-1/PD-L1 interaction,419 nM
"N#Cc1cncc(COc2cc(OCc3cccc(-c4cccc(COc5cc(OCc6cncc(C#N)c6)c(CNCCO)cc5Cl)c4)c3)c(Cl)cc2CNCCO)c1 [Example 25, 5,5′-((((([1,1′-biphenyl]-3,3′-diylbis(methylene))bis(oxy))bis(4-chloro-6-(((2-hydroxyethyl)amino)methyl)-3,1-phenylene))bis(oxy))bis(methylene))dinicotinonitrile]",IC50,PD-1/PD-L1,20.9 nM
same,EC50,PD-1/PD-L1 interaction,3760 nM
"Cc1c(COc2nc(OCc3cncs3)c(CNC[C@@H](O)CC(=O)O)cc2Br)cccc1-c1cccc(COc2nc(OCc3cncs3)c(CNC[C@@H](O)CC(=O)O)cc2Br)c1C [Example 138, (3S,3′S)-4,4′-((((((2,2′-dimethyl-[1,1′-biphenyl]-3,3′-diyl)bis(methylene))bis(oxy))bis(5-bromo-2-(thiazol-5-ylmethoxy)pyridine-6,3-diyl))bis(methylene))bis(azanediyl))bis(3-hydroxybutanoic acid)]",IC50,PD-1/PD-L1,1 nM
same,EC50,PD-1/PD-L1 interaction,392 nM
CNC(=O)COc1nc(O[C@H]2CCc3c(-c4cccc(-c5ccc(OCCNC[C@@H](O)CC(=O)O)cc5)c4C)cccc32)c(Br)cc1CNC[C@@H](O)CC(=O)O [Example 754],IC50,PD-1/PD-L1,0.091 nM
same,EC50,PD-1/PD-L1 interaction,434 nM
"Cc1c(COc2cc(OCc3cncc(C#N)c3)c(CNC[C@@H](O)CC(=O)O)cc2Cl)cccc1-c1cccc(-n2cc(CN)nn2)c1C [Example 386, (S)-4-((4-((3′-(4-(aminomethyl)-1H-1,2,3-triazol-1-yl)-2,2′-dimethyl-[1,1′-biphenyl]-3-yl)methoxy)-5-chloro-2-((5-cyanopyridin-3-yl)methoxy)benzyl)amino)-3-hydroxybutanoic acid]",IC50,PD-1/PD-L1,0.302 nM
same,EC50,PD-1/PD-L1 interaction,868 nM
"Cc1c(COc2ccc(CNC[C@@H](O)CC(=O)O)c(-c3cncc(C#N)c3)c2)cccc1-c1cccc(COc2ccc(CNC[C@@H](O)CC(=O)O)c(-c3cncc(C#N)c3)c2)c1C [Example 272, (3S,3′S)-4,4′-((((((2,2′-dimethyl-[1,1′-biphenyl]-3,3′-diyl)bis(methylene))bis(oxy))bis(2-(5-cyanopyridin-3-yl)-4,1-phenylene))bis(methylene))bis(azanediyl))bis(3-hydroxybutanoic acid)]",IC50,PD-1/PD-L1,2.5 nM
same,EC50,PD-1/PD-L1 interaction,37700 nM
"Cc1c(COc2cc(OCc3cncc(C#N)c3)c(CNC[C@H](O)CO)cc2Br)cccc1-c1cccc(COc2cc(OCc3cncc(C#N)c3)c(CNC[C@H](O)CO)cc2Br)c1C [Example 259, 5,5′-((((((2,2′-dimethyl-[1,1′-biphenyl]-3,3′-diyl)bis(methylene))bis(oxy))bis(4-bromo-6-((((S)-2,3-dihydroxypropyl)amino)methyl)-3,1-phenylene))bis(oxy))bis(methylene))dinicotinonitrile]",IC50,PD-1/PD-L1,22.7 nM
same,EC50,PD-1/PD-L1 interaction,511 nM
"Cc1c(COc2nc(OCc3cncc(C#N)c3)c(CNC[C@@H](O)CC(=O)O)cc2Br)cccc1-c1cccc(-c2ccc(OCCNC[C@@H](O)CC(=O)O)cc2)c1C [Example 385, (S)-4-((2-((3″-(((3-bromo-5-((((S)-3-carboxy-2-hydroxypropyl)amino)methyl)-6-((5-cyanopyridin-3-yl)methoxy)pyridin-2-yl)oxy)methyl)-2′,2″-dimethyl-[1,1′:3′,1″-terphenyl]-4-yl)oxy)ethyl)amino)-3-hydroxybutanoic acid]",IC50,PD-1/PD-L1,0.051 nM
same,EC50,PD-1/PD-L1 interaction,84 nM

# From US12590062B2, “PD-1/PD-L1 inhibitors” (Gilead Sciences, Inc., priority 2017, dated 2026)
